Data reported in ChEMBL document CHEMBL1130170, “Orally active trifluoromethyl ketone inhibitors of human leukocyte elastase” (J Med Chem, 1997).
Where a SMILES comes first, the peptide text is derived from it. The star is where a group is joined. CF3 = FC(F)(F)*; Moc = COC(=O)*

Tests used:
[1] = Intravenous integrated area under the concentration vs time curve, for compound in dog plasma; format: ADME, organism-based, Canis lupus familiaris
[2] = Intravenous integrated area under the concentration vs time curve, for compound in hamster plasma; format: ADME, organism-based; details: cricetinae
[3] = Ratio of intravenous to oral integrated area under the concentration vs time curve, for compound in dog plasma; format: ADME, organism-based, Canis lupus familiaris
[4] = target: T1, Mast cell carboxypeptidase A (Homo sapiens, UniProt P15088); assay: Binding affinity for carboxypeptidase A; No inhibition at 188 uM (highest concentration tested)
T1 sequence (P15088 whole entry): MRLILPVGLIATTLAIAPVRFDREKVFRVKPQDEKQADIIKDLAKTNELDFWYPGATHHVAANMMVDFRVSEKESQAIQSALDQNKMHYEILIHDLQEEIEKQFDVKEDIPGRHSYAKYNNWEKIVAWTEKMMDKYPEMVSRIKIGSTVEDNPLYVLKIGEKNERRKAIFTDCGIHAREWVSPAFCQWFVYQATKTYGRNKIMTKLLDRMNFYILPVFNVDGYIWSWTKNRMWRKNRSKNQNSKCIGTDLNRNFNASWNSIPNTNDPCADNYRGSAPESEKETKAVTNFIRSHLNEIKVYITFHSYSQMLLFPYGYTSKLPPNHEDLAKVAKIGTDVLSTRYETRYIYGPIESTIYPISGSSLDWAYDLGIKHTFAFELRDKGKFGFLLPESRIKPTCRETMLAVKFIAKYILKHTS

Cathepsin G = target: T2, Cathepsin G (Homo sapiens, UniProt P08311); assay: Binding affinity for human leukocyte cathepsin G; No inhibition at 188 uM (highest concentration tested)
T2 sequence (P08311 whole entry): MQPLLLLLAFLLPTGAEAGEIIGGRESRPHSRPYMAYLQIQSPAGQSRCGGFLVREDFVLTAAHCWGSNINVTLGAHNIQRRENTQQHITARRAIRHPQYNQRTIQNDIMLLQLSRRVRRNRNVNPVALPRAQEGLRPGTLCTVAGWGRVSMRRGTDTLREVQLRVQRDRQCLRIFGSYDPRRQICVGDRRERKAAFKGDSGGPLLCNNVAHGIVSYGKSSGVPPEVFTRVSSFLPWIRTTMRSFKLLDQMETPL

Procathepsin L = Procathepsin L (Bos taurus, UniProt P25975); assay: Binding affinity for bovine spleen cathepsin L; No inhibition at 188 uM (highest concentration tested)
Neutrophil elastase = target: T3, Neutrophil elastase (Homo sapiens, UniProt P08246); assay: Binding affinity for human leukocyte elastase
T3 sequence (P08246 whole entry): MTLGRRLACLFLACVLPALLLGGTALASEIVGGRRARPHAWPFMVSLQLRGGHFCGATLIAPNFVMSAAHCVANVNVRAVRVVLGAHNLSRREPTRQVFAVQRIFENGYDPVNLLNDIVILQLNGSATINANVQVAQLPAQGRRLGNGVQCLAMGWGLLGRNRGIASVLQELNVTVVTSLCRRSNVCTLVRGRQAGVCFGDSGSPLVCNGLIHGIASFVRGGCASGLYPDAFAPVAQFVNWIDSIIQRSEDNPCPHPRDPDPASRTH

Cricetinae gen. sp. = assay: Percent inhibition of elastase-induced lung damage by 10 mg/kg dosed orally, 30 minutes prior to the instillation of 50 ug of elastase; format: functional, Cricetulus griseus
Papain = target: T4, Papain (Carica papaya, UniProt P00784); assay: Binding affinity for papaya papain; No inhibition at 188 uM (highest concentration tested)
T4 sequence (P00784 whole entry): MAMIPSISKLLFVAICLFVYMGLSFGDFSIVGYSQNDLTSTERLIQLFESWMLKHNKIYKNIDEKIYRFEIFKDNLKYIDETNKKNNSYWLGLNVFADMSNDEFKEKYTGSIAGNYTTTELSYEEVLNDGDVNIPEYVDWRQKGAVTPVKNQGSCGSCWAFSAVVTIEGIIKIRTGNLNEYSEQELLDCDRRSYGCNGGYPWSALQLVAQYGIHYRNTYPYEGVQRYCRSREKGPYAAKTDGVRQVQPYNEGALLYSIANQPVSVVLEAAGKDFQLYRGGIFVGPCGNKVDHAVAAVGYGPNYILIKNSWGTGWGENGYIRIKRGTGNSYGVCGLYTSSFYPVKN

Serine protease 1 [5] = target: T5, Serine protease 1 (Homo sapiens, UniProt P07477); assay: Binding affinity for human pancreatic trypsin
Plasma kallikrein = Plasma kallikrein (Homo sapiens, UniProt P03952); assay: Binding affinity for human plasma kallikrein; No inhibition at 188 uM (highest concentration tested); format: cell-free
Prothrombin = Prothrombin (Homo sapiens, UniProt P00734); assay: Binding affinity for human plasma thrombin; No inhibition at 188 uM (highest concentration tested); format: cell-free
Acetylcholinesterase = Acetylcholinesterase (Homo sapiens, UniProt P22303); assay: Binding affinity for human erythrocyte Acetylcholinesterase; No inhibition at 188 uM (highest concentration tested)
Serine protease 1 [6] = target: T5, Serine protease 1; assay: Binding affinity for human pancreatic trypsin; […]
[7] = +Ratio of intravenous to oral integrated area under the concentration vs time curve, for compound in dog plasma; format: ADME, organism-based, Canis lupus familiaris

Chain of Procathepsin L (P25975 whole entry): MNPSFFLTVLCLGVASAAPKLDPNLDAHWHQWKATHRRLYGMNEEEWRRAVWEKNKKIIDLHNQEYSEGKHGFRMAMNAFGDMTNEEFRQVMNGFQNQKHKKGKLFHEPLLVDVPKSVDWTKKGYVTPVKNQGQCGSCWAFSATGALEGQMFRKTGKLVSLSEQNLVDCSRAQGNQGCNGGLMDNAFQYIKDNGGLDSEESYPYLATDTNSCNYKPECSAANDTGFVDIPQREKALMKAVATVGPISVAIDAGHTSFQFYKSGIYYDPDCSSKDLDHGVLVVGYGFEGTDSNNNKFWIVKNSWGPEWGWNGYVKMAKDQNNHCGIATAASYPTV
T5 sequence (P07477 whole entry): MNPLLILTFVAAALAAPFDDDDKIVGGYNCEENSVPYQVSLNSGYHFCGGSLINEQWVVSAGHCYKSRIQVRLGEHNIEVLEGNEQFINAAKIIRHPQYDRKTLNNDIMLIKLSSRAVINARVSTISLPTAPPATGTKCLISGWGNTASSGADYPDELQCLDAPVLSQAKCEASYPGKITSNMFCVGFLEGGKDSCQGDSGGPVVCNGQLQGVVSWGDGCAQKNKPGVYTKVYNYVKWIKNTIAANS
Chain of Plasma kallikrein (P03952 20-390 limits assumed): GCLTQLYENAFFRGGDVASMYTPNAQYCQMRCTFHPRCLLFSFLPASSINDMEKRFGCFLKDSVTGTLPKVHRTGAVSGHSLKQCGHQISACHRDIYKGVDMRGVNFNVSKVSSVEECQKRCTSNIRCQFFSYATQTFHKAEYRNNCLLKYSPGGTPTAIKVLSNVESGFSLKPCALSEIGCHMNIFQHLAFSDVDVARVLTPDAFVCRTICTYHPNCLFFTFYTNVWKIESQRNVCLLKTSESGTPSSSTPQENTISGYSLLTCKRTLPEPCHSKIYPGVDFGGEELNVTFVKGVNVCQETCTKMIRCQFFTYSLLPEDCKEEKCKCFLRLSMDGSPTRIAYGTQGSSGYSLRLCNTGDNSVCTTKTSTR
Chain of Plasma kallikrein (P03952 391-638 limits assumed): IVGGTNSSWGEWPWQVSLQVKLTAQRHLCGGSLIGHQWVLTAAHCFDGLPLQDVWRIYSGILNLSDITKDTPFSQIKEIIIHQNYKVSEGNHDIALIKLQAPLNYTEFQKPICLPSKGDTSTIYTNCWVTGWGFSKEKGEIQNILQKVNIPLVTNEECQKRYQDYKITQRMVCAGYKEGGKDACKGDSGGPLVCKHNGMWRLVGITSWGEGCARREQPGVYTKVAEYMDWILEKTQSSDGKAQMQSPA
Chain of Acetylcholinesterase (P22303 whole entry): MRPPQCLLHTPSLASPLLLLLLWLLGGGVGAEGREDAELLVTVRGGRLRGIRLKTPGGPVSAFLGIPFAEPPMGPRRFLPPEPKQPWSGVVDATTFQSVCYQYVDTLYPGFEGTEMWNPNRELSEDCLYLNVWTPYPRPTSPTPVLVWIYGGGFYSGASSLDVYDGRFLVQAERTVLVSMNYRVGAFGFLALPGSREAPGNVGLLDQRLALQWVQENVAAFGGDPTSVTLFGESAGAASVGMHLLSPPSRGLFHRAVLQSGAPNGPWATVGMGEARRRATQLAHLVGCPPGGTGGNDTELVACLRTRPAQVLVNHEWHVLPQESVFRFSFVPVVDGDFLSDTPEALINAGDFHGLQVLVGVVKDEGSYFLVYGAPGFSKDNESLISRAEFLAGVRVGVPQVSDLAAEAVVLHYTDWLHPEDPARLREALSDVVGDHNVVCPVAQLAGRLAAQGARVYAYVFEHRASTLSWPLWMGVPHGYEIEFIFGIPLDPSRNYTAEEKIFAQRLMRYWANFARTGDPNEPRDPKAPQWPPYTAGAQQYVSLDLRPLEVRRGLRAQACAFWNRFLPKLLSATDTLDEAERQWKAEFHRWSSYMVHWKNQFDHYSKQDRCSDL

bioavailability [3]	Ki [4]	Ki (Cathepsin G)	Ki (Neutrophil elastase)	Ki (Serine protease 1 [5])	SMILES	AUC [1]	AUC [2]	Ki (Procathepsin L)	inhibition in vivo at 10 mg/kg (Cricetinae gen. sp.; Cricetinae gen. sp., po)	Ki (Papain)	Ki (Plasma kallikrein)	Ki (Prothrombin)	Ki (Acetylcholinesterase)	Inhibition (Cricetinae gen. sp.; 10 mg/kg)	Ki (Serine protease 1 [6])	bioavailability [7]
70%	No inhibition	No inhibition	0.013 µM	66.6 µM	COC(=O)N[C@H](C(=O)N1CCC[C@H]1C(=O)N[C@H](C(=O)C(F)(F)F)C(C)C)C(C)C (Moc-Val-Pro-Val-CF3)	9370 ng·h/mL	2890 ng·h/mL	No inhibition	92%	No inhibition	No inhibition	No inhibition	–	–	–	–
–	–	–	–	–	COc1ccc(C(=O)N[C@H](C(=O)N2CCC[C@H]2C(=O)N[C@H](C(=O)C(F)(F)F)C(C)C)C(C)C)cc1 (stereo in doubt; 1k)	3180 ng·h/mL	1360 ng·h/mL	No inhibition	–	No inhibition	No inhibition	No inhibition	No inhibition	84%	No inhibition	39%
